Consider five molecules from patent publication US6627634B2, “Bicyclic heterocycles, pharmaceutical compositions containing them, their use, and processes for preparing them” (Boehringer Ingelheim Pharma KG, priority 2000, dated 2003).

System in the first data set: not given
Test: not given
Conditions: not given
On to `O=C(C=CCN1CCN(C2CCOC2=O)CC1)Nc1cc2c(Nc3ccc(F)c(Cl)c3)ncnc2cc1OCC1CC1` (stereo not drawn) [Example 1, 4-[(3-chloro-4-fluorophenyl)amino]-6-({4-[4-(2-oxotetrahydrofuran-3-yl)piperazin-1yl]-1-oxo-2-buten-1-yl}amino)-7-cyclopropylmethoxyquinazoline], for which the melting point fell in the range of 130 to 131 °C.
Molecule `O=C(C=CCN1CCN(C(=O)[C@@H]2CCC(=O)O2)CC1)Nc1cc2c(Nc3ccc(F)c(Cl)c3)ncnc2cc1OCC1CC1` [Example 3, (S)-4-[(3-chloro-4-fluorophenyl)amino]-6-[(4-{4-[(5-oxotetrahydrofuran-2-yl)carbonyl]piperazin-1-yl}-1-oxo-2-buten-1-yl)amino]-7-cyclopropylmethoxyquinazoline] yielded a melting point of 155 to 157 °C.

The target in a further data set is T1, human EGF-R (Homo sapiens, UniProt P00533).
T1 construct: expressed in transfected cells; host or cells: F/L-HERc cells (murine IL-3-dependent FDC-P1 line transduced with retroviral vector LXSN carrying human EGF-R cDNA; packaging line GP+E86)
T1 sequence (P00533 25-1210): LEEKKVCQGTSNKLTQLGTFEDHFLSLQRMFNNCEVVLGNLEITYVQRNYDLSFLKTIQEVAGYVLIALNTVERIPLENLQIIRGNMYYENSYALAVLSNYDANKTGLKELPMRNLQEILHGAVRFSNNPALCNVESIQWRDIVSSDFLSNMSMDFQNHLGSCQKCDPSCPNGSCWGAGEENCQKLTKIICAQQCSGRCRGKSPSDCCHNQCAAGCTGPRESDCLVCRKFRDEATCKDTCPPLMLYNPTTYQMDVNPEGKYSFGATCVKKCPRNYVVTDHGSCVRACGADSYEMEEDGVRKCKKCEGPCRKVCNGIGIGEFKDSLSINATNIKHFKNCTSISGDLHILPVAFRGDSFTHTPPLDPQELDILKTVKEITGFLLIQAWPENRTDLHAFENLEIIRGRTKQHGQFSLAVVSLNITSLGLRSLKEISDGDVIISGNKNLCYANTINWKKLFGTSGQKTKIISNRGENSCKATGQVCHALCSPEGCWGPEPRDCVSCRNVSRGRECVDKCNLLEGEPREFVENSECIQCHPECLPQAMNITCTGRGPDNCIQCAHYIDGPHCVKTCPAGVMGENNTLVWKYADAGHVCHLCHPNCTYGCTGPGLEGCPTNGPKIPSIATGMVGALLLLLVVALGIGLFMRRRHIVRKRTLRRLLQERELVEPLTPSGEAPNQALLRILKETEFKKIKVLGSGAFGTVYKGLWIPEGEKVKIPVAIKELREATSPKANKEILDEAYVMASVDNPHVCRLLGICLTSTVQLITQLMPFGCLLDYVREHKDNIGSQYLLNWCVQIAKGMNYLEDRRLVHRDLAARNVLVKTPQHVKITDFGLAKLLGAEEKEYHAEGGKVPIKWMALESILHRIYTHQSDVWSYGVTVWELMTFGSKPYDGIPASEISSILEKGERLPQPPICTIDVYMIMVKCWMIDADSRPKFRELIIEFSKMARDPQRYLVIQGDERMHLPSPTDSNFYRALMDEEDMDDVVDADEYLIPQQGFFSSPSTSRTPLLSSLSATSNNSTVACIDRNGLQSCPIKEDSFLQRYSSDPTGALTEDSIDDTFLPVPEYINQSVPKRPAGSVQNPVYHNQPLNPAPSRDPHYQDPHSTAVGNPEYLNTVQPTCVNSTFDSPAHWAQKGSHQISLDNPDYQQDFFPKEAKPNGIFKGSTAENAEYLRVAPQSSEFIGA
Briefly: Inhibition of EGF-dependent proliferation of F/L-HERc cells. The data set is classed as cell-based. The settings on record: F/L-HERc cells (murine IL-3-dependent line expressing human EGF-R), stimulated with EGF 20 ng/ml, 48 hours, Cell Titer 96 AQueous assay. From the text: A cell line of murine origin dependent on interleukin-3-(IL-3) which was genetically modified to express functional human EGF-R was used here. The proliferation of these cells known as F/L-HERc can therefore be stimulated either by murine IL-3 or by EGF (cf. T. von Rüiden et al. in EMBO J. 7, 2749-2756 (1988) and J. H. Pierce et al. in Science 239, 628-631 (1988)).
The starting material used for the F/L-HERc cells was the cell line FDC-P1, the production of which has been described by T. M. Dexter et al., J. Exp. Med. 152 1036-1047 (1980). Alternatively, however, other growth-factor-dependent cells may also be used (cf., e.g., J. H. Pierce et al., Science 239, 628-631 (1988); H. Shibuya et al., Cell 70, 57-67 (1992); and W. S. Alexander et al., EMBO J. 10, 3683-3691 (1991)). For expressing the human EGF-R cDNA (cf. A. Ullrich et al., Nature 309, 418-425 (1984)) recombinant retroviruses were used as described by T. von Rüiden et al., EMBO J. 7, 2749-2756 (1988), except that the retroviral vector LXSN (cf. A. D. Miller et al., BioTechniques 7, 980-990 (1989)) was used for the expression of the EGF-R cDNA and the line GP+E86 (cf. D. Markowitz et al., J. Virol. 62, 1120-1124 (1988)) was used as the packaging cell.
F/L-HERc cells were cultivated in RPMI/1640 medium (BioWhittaker), supplemented with 10% fetal calf serum (FCS, Boehringer Mannheim), 2 mM glutamine (BioWhittaker), standard antibiotics and 20 ng/ml of human EGF (Promega), at 37° C. and 5% CO2. In order to investigate the inhibitory activity of the compounds according to the invention, 1.5×10^4 cells per well were cultivated in triplicate in 96-well dishes in the above medium (200 μl), the cell proliferation being stimulated with either EGF (20 ng/ml) or murine IL-3. The IL-3 used was obtained from culture supernatants of the cell line X63/0 mIL-3 (cf. H. Karasuyama et al., Eur. J. Immunol. 18, 97-104 (1988)). The compounds according to the invention were dissolved in 100% dimethylsulfoxide (DMSO) and added to the cultures in various dilutions, the maximum DMSO concentration being 1%. The cultures were incubated for 48 hours at 37° C.
In order to determine the inhibitory activity of the compounds according to the invention the relative cell number was measured in O.D. units using the Cell Titer 96™ AQueous Non-Radioactive Cell Proliferation Assay (Promega). The relative cell number was calculated as a percentage of the control (F/LHERc cells without inhibitor) and the concentration of active substance which inhibits the proliferation of the cells by 50% (IC50) was derived therefrom.
In the case of `O=C(C=CCN1CCN2CC(=O)OCC2C1)Nc1cc2c(Nc3ccc(F)c(Cl)c3)ncnc2cc1OCC1CC1` (stereo not drawn) [4(3), 4-[(3-chloro-4-fluorophenyl)amino]-6-{[4-(3-oxoperhydropyrazino[2,1-c][1,4]oxazin-8-yl)-1-oxo-2-buten-1-yl]amino}-7-cyclopropylmethoxyquinazoline], half-maximal inhibition (IC50) was put at 10 nM.
On to `O=C(C=CCN1CCN(C2CCOC2=O)CC1)Nc1cc2c(Nc3ccc(F)c(Cl)c3)ncnc2cc1OCC1CC1` (stereo not drawn) [Example 1, 4-[(3-chloro-4-fluorophenyl)amino]-6-({4-[4-(2-oxotetrahydrofuran-3-yl)piperazin-1yl]-1-oxo-2-buten-1-yl}amino)-7-cyclopropylmethoxyquinazoline], for which the midpoint of inhibition, the IC50, lay at 0.05 nM.
Molecule `O=C(C=CCN1CCN(C2COC(=O)C2)CC1)Nc1cc2c(Nc3ccc(F)c(Cl)c3)ncnc2cc1OCC1CC1` (stereo not drawn) [Example 2, 4-[(3-chloro-4-fluorophenyl)amino]-6-({4-[4-(2-oxotetrahydrofuran-4-yl)piperazin-1-yl]-1-oxo-2-buten-1-yl}amino)-7-cyclopropylmethoxyquinazoline] showed an IC50 of 0.6 nM.
The molecule `O=C(C=CCN1CCN(CCSC2CCOC2=O)CC1)Nc1cc2c(Nc3ccc(F)c(Cl)c3)ncnc2cc1OCC1CC1` (stereo not drawn) [Example 4, 4-[(3-chloro-4-fluorophenyl)amino]-6-{[4-(4-{2-[(2-oxotetrahydrofuran-3-yl)sulfanyl]ethyl}piperazin-1-yl)-1-oxo-2-buten-1-yl]amino}-7-cyclopropylmethoxyquinazoline] yielded an IC50 of 3 nM.
